We go through four molecules from ChEMBL document CHEMBL3525920, “CYP4F enzymes are responsible for the elimination of fingolimod (FTY720), a novel treatment of relapsing multiple sclerosis” (Drug Metab Dispos, 2011).

The target of data set [1] is T1, Cytochrome P450 4F2 (Homo sapiens, UniProt P78329).
T1 sequence (P78329 whole entry): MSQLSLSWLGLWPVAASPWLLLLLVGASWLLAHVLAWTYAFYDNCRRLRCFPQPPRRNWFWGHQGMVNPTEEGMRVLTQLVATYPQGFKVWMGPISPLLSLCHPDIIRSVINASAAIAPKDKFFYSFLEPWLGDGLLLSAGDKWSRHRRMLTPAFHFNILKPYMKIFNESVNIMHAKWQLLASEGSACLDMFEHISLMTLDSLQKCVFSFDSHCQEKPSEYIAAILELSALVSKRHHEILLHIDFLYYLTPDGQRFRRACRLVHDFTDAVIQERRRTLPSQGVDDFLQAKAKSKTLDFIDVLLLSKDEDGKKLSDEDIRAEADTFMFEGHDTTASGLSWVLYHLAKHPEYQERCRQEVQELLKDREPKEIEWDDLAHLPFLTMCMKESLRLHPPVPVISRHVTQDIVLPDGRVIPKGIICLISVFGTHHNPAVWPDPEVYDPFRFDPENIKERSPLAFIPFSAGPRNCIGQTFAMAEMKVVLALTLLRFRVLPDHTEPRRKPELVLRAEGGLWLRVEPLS
Kind of data set: Inhibition of human recombinant CYP4F2 assessed as fingolimod metabolism. It is filed as ADME.

For data set [2], the target named is T1, Cytochrome P450 4F2. Description: Inhibition of human CYP4F2 in human liver microsomes assessed as fingolimod metabolism. It is filed as ADME.
Data set [3] in a line: Terminal half life in human. It is filed as ADME, organism-based. On the set-up: dosed compound name Fingolimod. Particulars: in vivo, read-out: beta t1/2 (converted).
Data set [4] is described as follows: Retention time of the compound by C18 advantage armor column based LC-MS analysis. It is filed as physicochemical.
In a further data set the target is Cytochrome P450 2D6 (Homo sapiens, UniProt P10635). Kind of data set: Activity at human recombinant CYP2D6 expressed in baculovirus-infected BTI-TN-5B1-4 insect cell microsomes assessed as relative abundance of compound formation treated with [14C]fingolimod at 20 uM after 30 mins by HPLC-RA analysis. It is filed as ADME. Particulars: bti-tn-5b1-4, 0.5 h.
Cytochrome P450 2D6, sequence (P10635 whole entry): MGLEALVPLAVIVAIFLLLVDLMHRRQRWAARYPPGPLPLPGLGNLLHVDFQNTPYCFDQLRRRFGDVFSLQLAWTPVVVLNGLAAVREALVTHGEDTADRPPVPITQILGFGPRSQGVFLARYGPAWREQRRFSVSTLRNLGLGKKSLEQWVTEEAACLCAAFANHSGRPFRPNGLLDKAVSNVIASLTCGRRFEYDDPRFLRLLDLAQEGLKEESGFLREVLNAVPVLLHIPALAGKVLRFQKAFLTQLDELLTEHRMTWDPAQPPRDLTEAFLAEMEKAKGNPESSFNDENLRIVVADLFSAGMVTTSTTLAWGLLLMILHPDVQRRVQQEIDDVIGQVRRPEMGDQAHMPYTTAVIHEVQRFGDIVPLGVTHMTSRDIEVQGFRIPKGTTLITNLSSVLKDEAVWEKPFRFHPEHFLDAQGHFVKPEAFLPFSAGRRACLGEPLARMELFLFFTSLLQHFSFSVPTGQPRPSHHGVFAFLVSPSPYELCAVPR
Data set [5] deals with T1, Cytochrome P450 4F2. Description: Activity at human recombinant CYP4F2 expressed in baculovirus-infected BTI-TN-5B1-4 insect cell microsomes assessed as relative abundance of compound formation treated with [14C]fingolimod at 100 uM after 30 mins by HPLC-RA analysis. Particulars: bti-tn-5b1-4, 0.5 h. It is filed as ADME.
Data set [6] can be described thus: Retention time of the compound by symmetry C18 column based LC-MS analysis. It is filed as physicochemical.
A further data set deals with Cytochrome P450 4F3 (Homo sapiens, UniProt Q08477). Kind of data set: Activity at human recombinant CYP4F3B expressed in baculovirus-infected BTI-TN-5B1-4 insect cell microsomes assessed as relative abundance of compound formation treated with [14C]fingolimod at 100 uM after 30 mins by HPLC-RA analysis. It is filed as ADME. As to conditions: bti-tn-5b1-4, 0.5 h.
Cytochrome P450 4F3, sequence (Q08477 whole entry): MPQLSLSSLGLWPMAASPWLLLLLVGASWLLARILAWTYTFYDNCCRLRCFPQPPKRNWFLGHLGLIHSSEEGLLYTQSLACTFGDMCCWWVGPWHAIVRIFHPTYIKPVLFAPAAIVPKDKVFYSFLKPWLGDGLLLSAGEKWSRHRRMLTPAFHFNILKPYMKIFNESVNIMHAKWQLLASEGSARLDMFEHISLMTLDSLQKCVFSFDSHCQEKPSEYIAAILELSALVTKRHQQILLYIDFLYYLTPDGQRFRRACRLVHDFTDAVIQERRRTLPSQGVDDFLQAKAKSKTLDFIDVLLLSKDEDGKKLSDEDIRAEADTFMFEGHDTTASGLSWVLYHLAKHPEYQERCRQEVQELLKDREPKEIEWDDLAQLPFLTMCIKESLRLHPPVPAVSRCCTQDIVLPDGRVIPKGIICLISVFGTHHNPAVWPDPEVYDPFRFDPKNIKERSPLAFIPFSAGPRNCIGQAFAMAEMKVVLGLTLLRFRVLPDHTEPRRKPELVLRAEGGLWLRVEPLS
Data set [7] can be described thus: Retention time of the compound by long gradient-based HPLC-RA analysis. It is filed as physicochemical.
Substrate in data set [8]: CCCCCCCCc1ccc(CCC(N)(CO)CO)cc1
Kind of data set: Activity at human recombinant CYP4F2 expressed in baculovirus-infected BTI-TN-5B1-4 insect cell microsomes assessed as metabolite formation after 15 mins by Eadie-Hofstee plot analysis. It is filed as ADME.

Take `CC(=O)N1CCN(c2ccc(OCC3COC(Cn4ccnc4)(c4ccc(Cl)cc4Cl)O3)cc2)CC1` (stereo unspecified) [KETOCONAZOLE]: on Cytochrome P450 4F2 [1], the IC50 is 1600 nM. For the same molecule, the Ki at Cytochrome P450 4F2 [2] amounted to 740 nM.

As for `CCCCCCCCc1ccc(CCC(N)(CO)CO)cc1` [FINGOLIMOD], the half-life in data set [3] is 120 h.

As to `NC(CO)(CO)CCc1ccc(CCCCCCCCO)cc1`, the values for the Retention_time in data set [4], in data set [6] and in data set [7] were 35.4 min, 32.1 min and 34.7 min, respectively. The Compound recovery amounted to 1.02% on Cytochrome P450 2D6, 2.99% at Cytochrome P450 4F2 [5] and 0.84% on Cytochrome P450 4F3.

B1: Cytochrome P450 4F2 (Homo sapiens) (protein)
chain: MSQLSLSWLGLWPVAASPWLLLLLVGASWLLAHVLAWTYAFYDNCRRLRCFPQPPRRNWFWGHQGMVNPTEEGMRVLTQLVATYPQGFKVWMGPISPLLSLCHPDIIRSVINASAAIAPKDKFFYSFLEPWLGDGLLLSAGDKWSRHRRMLTPAFHFNILKPYMKIFNESVNIMHAKWQLLASEGSACLDMFEHISLMTLDSLQKCVFSFDSHCQEKPSEYIAAILELSALVSKRHHEILLHIDFLYYLTPDGQRFRRACRLVHDFTDAVIQERRRTLPSQGVDDFLQAKAKSKTLDFIDVLLLSKDEDGKKLSDEDIRAEADTFMFEGHDTTASGLSWVLYHLAKHPEYQERCRQEVQELLKDREPKEIEWDDLAHLPFLTMCMKESLRLHPPVPVISRHVTQDIVLPDGRVIPKGIICLISVFGTHHNPAVWPDPEVYDPFRFDPENIKERSPLAFIPFSAGPRNCIGQTFAMAEMKVVLALTLLRFRVLPDHTEPRRKPELVLRAEGGLWLRVEPLS
Regarding B1, in [8], the Km was found to be 45 µM and the Vmax turned out to be 0.00105 µmol/min.
